Source: publication PMC12632313 (bioRxiv, 2025)

Experiment: Ex-vivo stability in mouse whole blood
Type: in vitro ADME
Settings: male, C57BL/6, mouse

## H-RPPGFSPFR-OH [Bradykinin (BK), Bradykinin]
  half-life: 3.9 ± 1.3 min
